Results on 14 compounds are retold here after patent US20070270352A1, “Method of Treatment” (priority 2002, published 2007).

Where two headings read alike, the source gives them in different places.

Experiment [1] deals with p75^NTR (i.e. Chopper)-mediated cell apoptosis. It counts as cell-based, mice.
The test system of experiment [2] is p75^NTR-mediated cell apoptosis. The experiment is described as follows: Caspase activity after injection into the eye of chick embryos (FIG. 11). In kind it is in vivo. To be noted: injected into the eye of chick embryos; 500 nM of Tertiapin. As to the method:
FIG. 11 is a graphical representation showing that p75^NTR-mediated cell apoptosis requires functional GIRK channels. Apoptotic activity is measured in terms of caspase activity in the presence of Tertiapin, anti-NGF antibody and Iberiotoxin.
In FIG. 11, Tertiapin was injected into the eye of chick embryos. Anti-NGF antibodies and Iberiotoxin ([…]) were also tested. Apoptotic activity was measured using caspase activity.

For experiment [3], the target named is T1, ROMK1 channels (Homo sapiens, UniProt P48048).
T1 sequence (P48048 whole entry, looked up): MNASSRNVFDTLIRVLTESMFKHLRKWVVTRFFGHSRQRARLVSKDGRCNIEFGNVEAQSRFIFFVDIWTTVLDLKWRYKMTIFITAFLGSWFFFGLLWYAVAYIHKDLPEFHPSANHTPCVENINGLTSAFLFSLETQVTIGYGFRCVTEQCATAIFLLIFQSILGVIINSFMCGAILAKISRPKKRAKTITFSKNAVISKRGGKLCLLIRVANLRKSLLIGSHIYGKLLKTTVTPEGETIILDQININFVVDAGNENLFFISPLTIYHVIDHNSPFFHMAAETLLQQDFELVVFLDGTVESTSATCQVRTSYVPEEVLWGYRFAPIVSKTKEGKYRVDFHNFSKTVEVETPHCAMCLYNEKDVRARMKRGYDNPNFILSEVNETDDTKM
To be noted: cited from earlier work.

In experiment [4] the target is T2, GIRK 1 and 4 subunits (Homo sapiens, UniProt P48544+P48549).
T2 sequence (P48544 whole entry, looked up): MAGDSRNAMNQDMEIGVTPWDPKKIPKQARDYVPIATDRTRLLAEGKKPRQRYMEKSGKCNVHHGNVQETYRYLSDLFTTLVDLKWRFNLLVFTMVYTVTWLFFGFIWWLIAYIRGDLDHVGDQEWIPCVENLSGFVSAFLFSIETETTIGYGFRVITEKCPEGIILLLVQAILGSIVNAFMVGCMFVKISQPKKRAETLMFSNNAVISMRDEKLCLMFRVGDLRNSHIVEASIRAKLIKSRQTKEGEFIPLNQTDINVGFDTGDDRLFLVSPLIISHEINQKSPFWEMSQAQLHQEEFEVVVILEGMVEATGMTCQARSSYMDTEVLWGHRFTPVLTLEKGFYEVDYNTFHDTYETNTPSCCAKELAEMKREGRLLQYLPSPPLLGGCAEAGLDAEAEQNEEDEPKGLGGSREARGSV
T2 sequence (P48549 whole entry, looked up): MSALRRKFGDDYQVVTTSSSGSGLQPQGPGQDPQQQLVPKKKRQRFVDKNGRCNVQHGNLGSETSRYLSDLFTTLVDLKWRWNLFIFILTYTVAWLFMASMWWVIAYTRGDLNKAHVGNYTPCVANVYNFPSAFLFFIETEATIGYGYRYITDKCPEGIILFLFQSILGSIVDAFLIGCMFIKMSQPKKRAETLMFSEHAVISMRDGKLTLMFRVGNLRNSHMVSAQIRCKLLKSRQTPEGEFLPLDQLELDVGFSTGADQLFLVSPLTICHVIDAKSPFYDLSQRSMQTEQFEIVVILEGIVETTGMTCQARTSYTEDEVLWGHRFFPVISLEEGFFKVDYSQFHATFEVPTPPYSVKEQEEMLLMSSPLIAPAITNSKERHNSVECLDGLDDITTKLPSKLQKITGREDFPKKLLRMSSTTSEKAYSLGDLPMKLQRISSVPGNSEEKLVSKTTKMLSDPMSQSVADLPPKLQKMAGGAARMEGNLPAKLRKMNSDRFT
To be noted: cited from earlier work.

Where [5] appears, read: p75NTR (Chopper)-mediated apoptosis of neuronal cells, neuronal viability after Chopper peptide, inhibitor added just prior or pretreated.

With 2-APB, in experiment [1] (setting [5]), the “Prevention of killing?” value is given as “No”.
As for `Nc1ccncc1` [4-aminopyridine], the “Prevention of killing?” value in experiment [1] (setting [5]) is given as “Toxic”.
On the same count and under the same terms, next, `CC(=O)OCOC(=O)CN(CC(=O)OCOC(C)=O)c1ccccc1OCCOc1ccccc1N(CC(=O)OCOC(C)=O)CC(=O)OCOC(C)=O` [BAPTA-AM]: “Yes”; `O=C(O)CN(CC(=O)O)c1ccccc1OCCOc1ccccc1N(CC(=O)O)CC(=O)O` [BAPTA]: “No”.
As to `NCC(CC(=O)O)c1ccc(Cl)cc1` (stereo not shown) [Baclofen], the cell survival entry in experiment [1] (GABA receptor agonist activating GIRKs (FIG. 10 model)) is “promotion of cell survival”.
In the case of `CCCCN1CCCCC1C(=O)Nc1c(C)cccc1C` (stereo not shown) [Bupivicane], the “Chopper domain-mediated killing / p75^NTR (i.e. Chopper)-mediated cell apoptosis” value in experiment [1] (FIGS. 3-7, 10) is “inhibited”. Besides, in experiment [1] (setting [5]), the “Prevention of killing?” value is listed as “Yes”.
`CC[N+](CC)(CC)CC.[Cl-]` [TEA, Tetraethylammonium chloride]: in experiment [1], the “Chopper domain-mediated killing / p75^NTR (i.e. Chopper)-mediated cell apoptosis” value is recorded as “inhibited” and the “Prevention of killing?” value is “Yes”.
Regarding Charybdotoxin, the “Chopper domain-mediated killing / p75^NTR (i.e. Chopper)-mediated cell apoptosis” value in experiment [1] (FIGS. 3-7, 10) is given as “inhibited”. Further, the “Prevention of killing?” value in experiment [1] (setting [5]) is listed as “Yes”.
Turning to “Iberiotoxin (QFTDVDCSVSKECWSVCKDLFGVDRGKCMGKKCRCYQ; UniProt P24663 1-37, looked up)”, in experiment [1] (setting [5]), the “Prevention of killing?” value is “No”.
On to Margatoxin, for which the “Prevention of killing?” value in experiment [1] (setting [5]) is given as “No”.
Pertussis toxin [Pertusis toxin]: in experiment [1] (FIGS. 3-7, 10), the “Chopper domain-mediated killing / p75^NTR (i.e. Chopper)-mediated cell apoptosis” value is recorded as “still results in Chopper-mediated killing”. In experiment [1] (setting [5]), the “Prevention of killing?” value is “No”.
For the compound TTX, the “Prevention of killing?” value in experiment [1] is on record as “No”.
On to Tertiapin (ALCNCNRIIIPHMCWKKCGKK), for which the “Chopper domain-mediated killing / p75^NTR (i.e. Chopper)-mediated cell apoptosis” value in experiment [1] (FIGS. 3-7, 10) was “inhibited”. Further, in experiment [1] (setting [5]), the “Prevention of killing?” value is recorded as “Yes”. In addition, the “caspase activity (apoptotic activity)” value in experiment [2] is “effective in reducing caspase activity”. Besides, the affinity of inhibition result in experiment [3] and in experiment [4] was “nanomolar affinities” each time.
In the case of δ-Dendrotoxin, the “Prevention of killing?” value in experiment [1] (setting [5]) is on record as “No”.
